In patent US20020026053A1, “Novel 3-(substituted) -2- indolinones compounds and use thereof as inhibitors of protein kinase activity” (priority 1997, published 2002):

Target: T1, Met receptor (EGFR/Met chimeric cells, EMR) (Homo sapiens, UniProt P08581)
T1 construct: expressed in transfected cells; the other entry of the earlier key: EGFR (P00533, Epidermal growth factor receptor)
Test: Met Autophosphorylation Assay
Type: biochemical
Summary of the method: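 Met phosphorylation was measured by capture ELISA. Lysates (90 μg/100 μl, HNTG plus 1 mM PMSF) from transiently transfected EGFR/Met chimera (EMR) cells were bound for 60 min at room temperature to wells holding rabbit anti-Met (C-28) on goat anti-rabbit coat. Phosphotyrosine was the read-out.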

T1 sequence (P08581 with tags, fused parts or gaps): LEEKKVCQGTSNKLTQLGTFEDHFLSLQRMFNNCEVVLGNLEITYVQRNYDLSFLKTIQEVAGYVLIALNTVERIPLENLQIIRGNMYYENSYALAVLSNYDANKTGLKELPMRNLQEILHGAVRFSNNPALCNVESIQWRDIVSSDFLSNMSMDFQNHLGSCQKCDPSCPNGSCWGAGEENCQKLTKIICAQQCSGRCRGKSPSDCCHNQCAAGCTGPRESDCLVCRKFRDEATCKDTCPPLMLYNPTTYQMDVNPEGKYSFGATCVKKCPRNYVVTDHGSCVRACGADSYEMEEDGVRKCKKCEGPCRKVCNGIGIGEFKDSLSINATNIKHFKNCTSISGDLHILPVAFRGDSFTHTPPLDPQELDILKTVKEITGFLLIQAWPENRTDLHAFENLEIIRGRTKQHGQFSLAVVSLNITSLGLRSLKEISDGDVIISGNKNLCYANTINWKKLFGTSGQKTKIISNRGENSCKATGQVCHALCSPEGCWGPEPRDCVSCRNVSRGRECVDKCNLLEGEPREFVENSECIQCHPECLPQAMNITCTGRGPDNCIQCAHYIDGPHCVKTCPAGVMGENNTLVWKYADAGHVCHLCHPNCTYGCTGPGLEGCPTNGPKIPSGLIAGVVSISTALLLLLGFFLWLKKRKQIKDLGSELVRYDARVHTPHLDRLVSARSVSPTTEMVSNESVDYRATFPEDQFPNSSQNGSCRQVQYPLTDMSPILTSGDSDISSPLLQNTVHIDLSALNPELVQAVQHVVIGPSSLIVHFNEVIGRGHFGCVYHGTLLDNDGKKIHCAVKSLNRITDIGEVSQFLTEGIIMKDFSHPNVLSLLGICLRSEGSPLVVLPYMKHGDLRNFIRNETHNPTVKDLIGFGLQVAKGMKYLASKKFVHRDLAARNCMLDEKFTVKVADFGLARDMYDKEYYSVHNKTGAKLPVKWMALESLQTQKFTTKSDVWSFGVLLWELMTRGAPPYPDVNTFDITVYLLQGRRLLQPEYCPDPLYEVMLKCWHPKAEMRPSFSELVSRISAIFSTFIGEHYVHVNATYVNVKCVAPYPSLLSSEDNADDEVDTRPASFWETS

Structure (SMILES): Cc1c(O)ccc(C=C2C(=O)Nc3c(Br)cc(Br)c(C)c32)c1O [10718/H09]
- Met Kinase % Inhibition (P.130): 73.6%

Structure (SMILES): Cc1c(Br)cc(Br)c2c1C(=Cc1ccco1)C(=O)N2 [10718/H10]
- Met Kinase % Inhibition (P.130): 19.9%

Structure (SMILES): Cc1c(Br)cc(Br)c2c1C(=Cc1ccc([N+](=O)[O-])o1)C(=O)N2 [10718/H11]
- Met Kinase % Inhibition (P.130): 44.9%

Structure (SMILES): CCOc1ccc(C=C2C(=O)Nc3c(Br)cc(Br)c(C)c32)cc1OC [10719/H02]
- Met Kinase % Inhibition (P.130): 36.9%

Structure (SMILES): Cc1c(Br)cc(Br)c2c1C(=Cc1ccc(O)c(O)c1)C(=O)N2 [10719/H03]
- Met Kinase % Inhibition (P.130): 67.0%

Structure (SMILES): COc1ccc(C=C2C(=O)Nc3c(Br)cc(Br)c(C)c32)c(OC)c1 [10719/H04]
- Met Kinase % Inhibition (P.130): 0.7%

Structure (SMILES): CCc1c(C)[nH]c(C=C2C(=O)Nc3c(Br)cc(Br)c(C)c32)c1C [10719/H05]
- Met Kinase % Inhibition (P.130): 20.9%

Structure (SMILES): COc1cc(OC)c(C=C2C(=O)Nc3c(Br)cc(Br)c(C)c32)c(OC)c1 [10719/H06]
- Met Kinase % Inhibition (P.130): 1.3%

Structure (SMILES): CCN(CC)c1ccc(C=C2C(=O)Nc3c(Br)cc(Br)c(C)c32)c(O)c1 [10734/H05]
- Met Kinase % Inhibition (P.130): 51.1%

Structure (SMILES): Cc1c(Br)cc(Br)c2c1C(=Cc1ccc([N+](=O)[O-])cc1)C(=O)N2 [10734/H06]
- Met Kinase % Inhibition (P.130): 32.7%

Structure (SMILES): Cc1c(Br)cc(Br)c2c1C(=Cc1cc(Br)cc(Br)c1O)C(=O)N2 [10734/H07]
- Met Kinase % Inhibition (P.130): 84.9%

Structure (SMILES): Cc1c(Br)cc(Br)c2c1C(=Cc1cccc(F)c1O)C(=O)N2 [10734/H08]
- Met Kinase % Inhibition (P.130): 64.8%

Structure (SMILES): Cc1c(Br)cc(Br)c2c1C(=Cc1ccc(O)c(Br)c1)C(=O)N2 [10734/H09]
- Met Kinase % Inhibition (P.130): 78.4%

Structure (SMILES): Cc1c(Br)cc(Br)c2c1C(=Cc1ccc(C(C)(C)C)cc1)C(=O)N2 [10734/H10]
- Met Kinase % Inhibition (P.130): 23.5%

Structure (SMILES): Cc1c(Br)cc(Br)c2c1C(=Cc1ccc(Br)s1)C(=O)N2 [10734/H11]
- Met Kinase % Inhibition (P.130): 28.7%

Structure (SMILES): Cc1ccccc1C=C1C(=O)Nc2c(Br)cc(Br)cc21 [10735/A02]
- Met Kinase % Inhibition (P.130): 26.9%

Structure (SMILES): O=C1Nc2c(Br)cc(Br)cc2C1=Cc1ccc(F)c(F)c1 [10735/A03]
- Met Kinase % Inhibition (P.130): 53.0%

Structure (SMILES): O=C1Nc2c(Br)cc(Br)cc2C1=Cc1cc(F)cc(F)c1 [10735/A04]
- Met Kinase % Inhibition (P.130): 48.0%

Structure (SMILES): O=C1Nc2c(Br)cc(Br)cc2C1=Cc1cccc(C(F)(F)F)c1 [10735/A05]
- Met Kinase % Inhibition (P.130): 46.1%

Structure (SMILES): O=C1Nc2c(Br)cc(Br)cc2C1=Cc1cc(C(F)(F)F)cc(C(F)(F)F)c1 [10735/A06]
- Met Kinase % Inhibition (P.130): 58.9%

Structure (SMILES): N#Cc1ccccc1C=C1C(=O)Nc2c(Br)cc(Br)cc21 [10735/A07]
- Met Kinase % Inhibition (P.130): 61.9%

Structure (SMILES): O=C1Nc2c(Br)cc(Br)cc2C1=Cc1c(F)cccc1F [10735/A08]
- Met Kinase % Inhibition (P.130): 50.8%

Structure (SMILES): O=C1Nc2c(Br)cc(Br)cc2C1=Cc1cccc2ccccc12 [10735/A09]
- Met Kinase % Inhibition (P.130): 19.2%

Structure (SMILES): O=C1Nc2c(Br)cc(Br)cc2C1=Cc1ccc(Cl)cc1Cl [10735/A10]
- Met Kinase % Inhibition (P.130): 41.4%

Structure (SMILES): O=C1Nc2c(Br)cc(Br)cc2C1=Cc1ccc(-c2ccccc2)cc1 [10735/A11]
- Met Kinase % Inhibition (P.130): 24.5%

Structure (SMILES): Cc1ccccc1C=C1C(=O)Nc2ccc(I)cc21 [10735/B02]
- Met Kinase % Inhibition (P.130): 72.4%

Structure (SMILES): O=C1Nc2ccc(I)cc2C1=Cc1ccc(F)c(F)c1 [10735/B03]
- Met Kinase % Inhibition (P.130): 73.3%

Structure (SMILES): O=C1Nc2ccc(I)cc2C1=Cc1cc(F)cc(F)c1 [10735/B04]
- Met Kinase % Inhibition (P.130): 79.0%

Structure (SMILES): O=C1Nc2ccc(I)cc2C1=Cc1cccc(C(F)(F)F)c1 [10735/B05]
- Met Kinase % Inhibition (P.130): 83.7%

Structure (SMILES): O=C1Nc2ccc(I)cc2C1=Cc1cc(C(F)(F)F)cc(C(F)(F)F)c1 [10735/B06]
- Met Kinase % Inhibition (P.130): 82.7%

Structure (SMILES): N#Cc1ccccc1C=C1C(=O)Nc2ccc(I)cc21 [10735/B07]
- Met Kinase % Inhibition (P.130): 56.0%

Structure (SMILES): O=C1Nc2ccc(I)cc2C1=Cc1c(F)cccc1F [10735/B08]
- Met Kinase % Inhibition (P.130): 53.4%

Structure (SMILES): O=C1Nc2ccc(I)cc2C1=Cc1cccc2ccccc12 [10735/B09]
- Met Kinase % Inhibition (P.130): 46.8%

Structure (SMILES): O=C1Nc2ccc(I)cc2C1=Cc1ccc(Cl)cc1Cl [10735/B10]
- Met Kinase % Inhibition (P.130): 73.3%
